What was measured:
Orf63 = assay: 1H,15N-HSQC comparison of Orf63-linker-peptide hybrid protein with Orf63; type: binding, lambda bacteriophage; settings: 0.15 mM 15N-labeled 6xHis-Flag-Orf63-linker-peptide vs 0.15 mM 15N-labeled 6xHis-Flag-Orf63
[1] = target: 6xHis-Flag affinity tagged Orf63 from lambda bacteriophage (phage λ); assay: SEC-MALS; 2 mg/mL Orf63; 10 mM Tris-HCl, 0.15 M NaCl, pH 8.0; SEC300A column at 0.2 mL/min
[2] = target: fluorescent designed Orf63 binding peptide FAM-Ahx-…; assay: fluorescence polarisation; 10 nM fluorescent peptide with varying concentrations of Orf63 (per protomer) in PBS pH 7.4; 1:1 binding function, each peptide assumed to bind each protomer independently
15N-Orf63 dimer = assay: 15N-HSQC mixing experiment with ubiquitin fusion proteins; type: binding, lambda bacteriophage; settings: 2:1 ubiquitin fusion to 15N-Orf63 dimer, 5 mM Tris-Cl pH 7.4, 50 mM NaCl
Procedure: Amino acid substitution mutants were prepared using the Q5 mutagenesis method (New England Biolabs) with oligonucleotides from IDT. […] At an A600 of 0.8, expression was induced by the addition of 1 mM isopropyl thiogalactoside (IPTG), and the culture was grown for 3 h further before harvesting. Detailed information regarding the purification of this fragment by nickel affinity and gel filtration chromatography has been published previously. For NMR spectroscopy, a uniformly ^13C, ^15N isotopically labelled protein sample was made from a 1 L culture containing M9 minimal media salts supplemented with 3 g of ^13C-glucose (Sigma-Aldrich), 1 g of ^15N ammonium chloride (Sigma-Aldrich) and 1 g of ^13C,^15N Celtone algal extract (Cambridge Isotopes). Natural abundance Orf63 proteins were prepared using a similar protocol except cultures were grown in LB media. Protein concentrations were estimated by UV absorbance at 280 nm. […]
design ubiquitin […]
control ubiquitin […]
(a) A mixing experiment was performed with 15N-Orf63 and a Ubiquitin-fusion protein with a C-terminal extension corresponding to a designed peptide, or an unrelated peptide control. The mixing ratio was 2:1 (Ubiquitin fusion […]
(b,c) 15N-HSQC spectra of 15N-Orf63
(blue) and 15N-Orf63 mixed with a Ubiquitin fusion protein. Asterisks denote peaks that were […]

15N-Orf63 = assay: 15N-HSQC titration / chemical shift perturbation (CSP) mapping of peptide binding; design: species or system lambda bacteriophage
Procedure: (a) ^1H-^15N chemical shift perturbations (CSPs) measured between ^15N-Orf63 free, and in complex with a unlabelled designed peptide. Blue shading highlights a CSP > 0.05.
A titration was performed by acquiring a series of ^15N-HSQC spectra of 0.48 mM ^15N-Orf63 (monomeric concentration) with 0.12, 0.24, 0.36, 0.48, and 0.60 mM peptide ([…]) manufactured by GenScript (Piscataway, NJ) in phosphate buffered saline pH 7.4. Assignments of peptide-bound ^15N-Orf63, particularly through two helical regions, were made by walking through HN-HN correlations in a 3D 15N-NOESY spectrum.
Most resonances during the […]
throughout the two a-helical regions, was confirmed by an HN-HN walk through a 3D 15N-NOESY spectrum. Unassigned resonances N-terminal helix a1 and C-terminal to helix a2 are likely unstructured due to the absence of i,i+3, i,i+4, and HN-HN NOEs. The residue numbering follows the PDB file 8DSB and the expressed protein with N-terminal affinity […]
(1 picture or pasted object on this page, not shown here)

[3] = system: lysogenic or lytic developmental outcome of phage λ infection; settings: period to new viral progeny, bacterial survivors, conversion to lysogens; ref [8],[11]; cited from earlier work

DTKELILAIARKVKEMIKNS [hybrid protein]
spectrum of hybrid protein relative to Orf63 (Orf63): resembled Orf63 with additional peaks from the helical ligand along with a set of chemical shift changes

6xHis-Flag affinity tagged Orf63 from lambda bacteriophage (natural protein)
stoichiometry N [1]: 2 | Kd [2]: 3.1 µM

MAIAHAATEYVFADFVLK [reference compound]
line broadening / chemical shift changes (15N-Orf63 dimer): no chemical shift or line broadening changes

DTKELILAIARKVKEMIKNS [synthetic peptide]
saturation of the complex (15N-Orf63; 0.48 mM 15N-Orf63 (monomeric), 0.12-0.60 mM peptide, PBS pH 7.4, between 1:1 and 1.2:1 peptide:protomer ratio): the complex was deemed to be saturated with peptide ligand | exchange regime of CSPs, majority of resonances (15N-Orf63; 0.48 mM 15N-Orf63 (monomeric), titrated with peptide, PBS pH 7.4): fast exchange | exchange regime of CSPs, minority of resonances in helix α2 from S45 onwards (15N-Orf63; 0.48 mM 15N-Orf63 (monomeric), titrated with peptide, PBS pH 7.4, largest measured CSPs): slow exchange | observed interaction surface (CSPs mapped on the structure) (15N-Orf63; 0.48 mM 15N-Orf63, PBS pH 7.4): consistent with the predicted interaction surface of the model

DTKELILAIARKVKEMIKNS [Ubiquitin fusion protein]
line broadening / chemical shift changes (15N-Orf63 dimer): significant line broadening suggesting binding was occurring | line broadening / chemical shift changes (15N-Orf63 dimer; listed as design): severely line broadened

B1: Ea22: protein encoded between the exo and xis genes of phage λ (protein, UniProt P03756 1-182, looked up)
Protein ea22: MSEINSQALREAAEQAMHDDWGFDADLFHELVTPSIVLELLDERERNQQYIKRRDQENEDIALTVGKLRVELETAKSKLNEQREYYEGVISDGSKRIAKLESNEVREDGNQFLVVRHPGKTPVIKHCTGDLEEFLRQLIEQDPLVTIDIITHRYYGVGGQWVQDAGEYLHMMSDAGIRIKGE
lytic/lysogenic tendency [3]: pro-lysogenic

Reference: article PMC10869804 (Scientific Reports, 2024)
